± gives the expanded uncertainty stated by the source.
Experiment: wn = mass fraction of the nth substance listed
Settings: Fluid (supercritical or subcritical phases), isochoric method, w1 = 0.5001

FC(F)C(F)(F)F [pentafluoroethane] + FCF
Settings | mass density [kg/m3]
380 K, 9183 kPa | 525.3 ± 1.1
380 K, 9715 kPa | 570.7 ± 1.2
380 K, 10331 kPa | 614 ± 1.3
380 K, 13988 kPa | 759.2 ± 1.5
381 K, 8790 kPa | 475.5 ± 1
381 K, 9306 kPa | 525.2 ± 1.1
381 K, 9856 kPa | 570.7 ± 1.2
381 K, 10492 kPa | 614 ± 1.3
381 K, 14227 kPa | 759.2 ± 1.5
382 K, 8897 kPa | 475.5 ± 1
382 K, 9432 kPa | 525.2 ± 1.1
382 K, 9996 kPa | 570.6 ± 1.2
382 K, 10651 kPa | 613.9 ± 1.3
382 K, 14466 kPa | 759.1 ± 1.5
383 K, 9005 kPa | 475.4 ± 1
383 K, 9553 kPa | 525.2 ± 1.1
383 K, 10136 kPa | 570.6 ± 1.2
383 K, 10808 kPa | 613.9 ± 1.3
383 K, 14706 kPa | 759 ± 1.5
384 K, 9112 kPa | 475.4 ± 1
384 K, 9679 kPa | 525.2 ± 1.1
384 K, 10277 kPa | 570.6 ± 1.2
384 K, 10967 kPa | 613.8 ± 1.3
384 K, 14944 kPa | 759 ± 1.5
385 K, 9219 kPa | 475.4 ± 1
385 K, 9804 kPa | 525.1 ± 1.1
385 K, 10418 kPa | 570.5 ± 1.2
385 K, 11125 kPa | 613.8 ± 1.3
385 K, 15188 kPa | 758.9 ± 1.5
386 K, 9326 kPa | 475.4 ± 1
386 K, 9929 kPa | 525.1 ± 1.1
386 K, 10558 kPa | 570.5 ± 1.2
386 K, 11283 kPa | 613.8 ± 1.3
386 K, 15426 kPa | 758.9 ± 1.5
387 K, 9434 kPa | 475.3 ± 1
387 K, 10051 kPa | 525.1 ± 1.1
387 K, 10699 kPa | 570.5 ± 1.2
387 K, 11442 kPa | 613.7 ± 1.3
387 K, 15666 kPa | 758.8 ± 1.5
388 K, 9540 kPa | 475.3 ± 1
388 K, 10174 kPa | 525 ± 1.1
388 K, 10840 kPa | 570.4 ± 1.2
388 K, 11602 kPa | 613.7 ± 1.3
388 K, 15904 kPa | 758.7 ± 1.5
389 K, 9649 kPa | 475.3 ± 1
389 K, 10296 kPa | 525 ± 1.1
389 K, 10980 kPa | 570.4 ± 1.2
389 K, 11761 kPa | 613.6 ± 1.3
389 K, 16147 kPa | 758.7 ± 1.5
390 K, 9756 kPa | 475.3 ± 1
390 K, 10421 kPa | 525 ± 1.1
390 K, 11124 kPa | 570.3 ± 1.2
390 K, 11922 kPa | 613.6 ± 1.3
390 K, 16388 kPa | 758.6 ± 1.5
391 K, 9862 kPa | 475.2 ± 1
391 K, 10547 kPa | 524.9 ± 1.1
391 K, 11263 kPa | 570.3 ± 1.2
391 K, 12081 kPa | 613.6 ± 1.3
391 K, 16627 kPa | 758.6 ± 1.5
392 K, 9969 kPa | 475.2 ± 1
392 K, 10670 kPa | 524.9 ± 1.1
392 K, 11403 kPa | 570.3 ± 1.2
392 K, 12239 kPa | 613.5 ± 1.3
392 K, 16868 kPa | 758.5 ± 1.5
393 K, 10077 kPa | 475.2 ± 1
393 K, 10795 kPa | 524.9 ± 1.1
393 K, 11546 kPa | 570.2 ± 1.2
393 K, 12400 kPa | 613.5 ± 1.3
393 K, 17110 kPa | 758.4 ± 1.5
394 K, 10185 kPa | 475.2 ± 1
394 K, 10920 kPa | 524.9 ± 1.1
394 K, 11688 kPa | 570.2 ± 1.2
394 K, 12560 kPa | 613.4 ± 1.3
394 K, 17351 kPa | 758.4 ± 1.5
395 K, 10292 kPa | 475.1 ± 1
395 K, 11045 kPa | 524.8 ± 1.1
395 K, 11829 kPa | 570.2 ± 1.2
395 K, 12720 kPa | 613.4 ± 1.3
395 K, 17590 kPa | 758.3 ± 1.5
396 K, 10400 kPa | 475.1 ± 1
396 K, 11168 kPa | 524.8 ± 1.1
396 K, 11972 kPa | 570.1 ± 1.2
396 K, 12880 kPa | 613.4 ± 1.3
396 K, 17831 kPa | 758.3 ± 1.5
397 K, 10508 kPa | 475.1 ± 1
397 K, 11292 kPa | 524.8 ± 1.1
397 K, 12113 kPa | 570.1 ± 1.2
397 K, 13040 kPa | 613.3 ± 1.3
397 K, 18073 kPa | 758.2 ± 1.5
398 K, 10616 kPa | 475 ± 1
398 K, 11415 kPa | 524.7 ± 1.1
398 K, 12256 kPa | 570.1 ± 1.2
398 K, 13199 kPa | 613.3 ± 1.3
398 K, 18315 kPa | 758.1 ± 1.5
399 K, 10723 kPa | 475 ± 1
399 K, 11538 kPa | 524.7 ± 1.1
399 K, 12395 kPa | 570 ± 1.2
399 K, 13361 kPa | 613.2 ± 1.3
399 K, 18556 kPa | 758.1 ± 1.5

Source: the NIST ThermoML archive (doi:10.1021/je0501843)
